According to US8895752B2, “Alkylsulfonyl-substituted thiazolide compounds” (priority 2007, dated 2014):
Where two headings read alike, the source gives them in different places.

Legend:
[1] = test system: HCV replicon genotype 1A; test: Secondary HCV replicon cell assay, genotype 1A; type: cell-based, Hepatitis C Virus
From the text: (§1) Table 10 presents data from the secondary HCV replicon cell assays using genotypes 1B and 1A.

[2] = test system: HCV replicon cells; test: Primary HCV replicon cell assay, cytotoxicity; settings: primary assay
Description: (§2) Antiviral activity of test compounds was assessed in a 3-day assay using the stably-expressing HCV replicon cell line, AVA5 (sub-genomic CON1, genotype 1b) (Blight et al., 2000) maintained as sub-confluent cultures on 96-well plates as previously described (Okuse et al., 2005). Antiviral activity was determined by blot hybridization analysis of intracellular HCV RNA (normalized to the level of cellular B-actin RNA in each culture sample) and cytotoxicity was assessed by neutral red dye uptake after 3 days of treatment. Additional studies were performed using Huh7 cells containing another HCV replicon, H/FL-Neo, a genotype 1a full length construct (Blight et al., 2003). For studies involving human serum, standard culture medium (which contains 10% fetal bovine serum) and assay conditions were maintained.
(§3) EC50, EC90 and CC50 values (±standard deviations [S.D.]) were calculated by linear regression analysis using data combined from all treated cultures (Korba and Gerin, 1992; Okuse et al., 2005). […] Selectivity index (S.I.) was calculated as CC50/EC90 for HBV assays and CC50/EC50 for HCV assays. EC90 values were used for calculation of the S.I. in HBV assays since at least a […] depression of HBV DNA levels is typically required to achieve statistical significance in this assay system (Korba and Gerin, 1992). For combination treatments, EC50, EC90, CC50 and S.I. are presented for the first compound listed. The molar ratio of the compounds in each combination is also indicated.

[3] = test system: HCV replicon; test: Primary HCV replicon cell assay; type: cell-based, Hepatitis C Virus
Description: as §2, §3

[4] = test system: HCV replicon cells, genotype 1B; test: Secondary HCV replicon cell assay, genotype 1B, cytotoxicity; type: cell-based
From the text: as §1

[5] = test system: HCV replicon cells, genotype 1A; test: Secondary HCV replicon cell assay, genotype 1A, cytotoxicity; type: cell-based
From the text: as §1

[6] = test system: HCV replicon genotype 1B; test: Secondary HCV replicon cell assay, genotype 1B; type: cell-based, Hepatitis C Virus
From the text: as §1

[7] = test system: HBsAg; test: Semi-quantitative EIA of HBV proteins in 2.2.15 culture medium; type: cell-based, Hepatitis B Virus
Description: (§4) Cultures of 2.2.15 cells were treated under standard procedures and semi-quantitative EIA-based analysis of HBV proteins was performed as previously described (Korba and Gerin, 1995), except that HBeAg was analyzed ETI-EBK Plus® (DiaSorin, Inc., Stillwater, Minn. USA). Samples were diluted (2 to 10-fold) to bring levels into the dynamic response ranges of the EIA's. HBsAg, and HBeAg were analyzed from culture medium samples and HBcAg was analyzed from intracellular lysates. Intracellular HBV RNA was assessed by quantitative northern blot hybridization (Korba and Gerin, 1995).

[8] = test system: HBeAg; test: as above; type: cell-based, Hepatitis B Virus
Description: as §4

[9] = test system: HCV replicon H/FL-Neo, genotype 1a full length; test: HCV replicon assay in Huh7 cells containing H/FL-Neo; type: cell-based, Hepatitis C Virus
Description: as §2, §3

[10] = Cytotoxicity by neutral red dye uptake in AVA5 cells; type: cell-based; settings: human, Genotype 1b replicon
[11] = test system: HCV replicon, sub-genomic CON1, genotype 1b; test: 3-day HCV replicon assay in AVA5 cells (intracellular HCV RNA, blot hybridization); type: cell-based, Hepatitis C Virus; settings: Hepatitis C virus, Ava5, 72 h; Genotype 1b replicon, 3 days; first compound listed for combinations
Description: as §2, §3

[12] = test system: HBV Mutant M204V; test: 5-day transient transfection assay in Huh7 cells, intracellular HBV RI by Southern blot; type: cell-based, Hepatitis B Virus; settings: Hepatitis B virus, Huh-7
Description: (§5) Activity against LMV-resistant (Allen et al., 1998) and ADV-resistant (Angus et al., 2003) HBV mutants was performed in a 5-day assay using a transient transfection method as previously described (Iyer et al., 2004). Antiviral activity was determined by quantitative Southern blot hybridization of intracellular HBV DNA replication intermediates (HBV RI).

[13] = test system: HBV Mutant L180M/M204V; test: as above; type: cell-based, Hepatitis B Virus; settings: Hepatitis B virus, Huh-7
Description: as §5

[14] = test system: HBV Mutant M204I; test: as above; type: cell-based, Hepatitis B Virus; settings: Hepatitis B virus, Huh-7
Description: as §5

[15] = test system: HBV Mutant N236T; test: as above; type: cell-based, Hepatitis B Virus; settings: Hepatitis B virus, Huh-7
Description: as §5

[16] = test system: HBV Mutant L180M; test: as above; type: cell-based, Hepatitis B Virus; settings: Hepatitis B virus, Huh-7
Description: as §5

[17] = test system: HBV; test: HBV antiviral assay in confluent 2.2.15 cell cultures (HBV DNA, quantitative blot hybridization); type: cell-based, Hepatitis B Virus; settings: Hepatitis B virus
Description: EC50, EC90 and CC50 values (±standard deviations [S.D.]) were calculated by linear regression analysis using data combined from all treated cultures (Korba and Gerin, 1992; Okuse et al., 2005). […] Selectivity index (S.I.) was calculated as CC50/EC90 for HBV assays and CC50/EC50 for HCV assays. EC90 values were used for calculation of the S.I. in HBV assays since at least a 3-fold depression of HBV DNA levels is typically required to achieve statistical significance in this assay system (Korba and Gerin, 1992).

[18] = test system: HBV RNA; test: Intracellular HBV RNA by quantitative northern blot hybridization in 2.2.15 cells; type: cell-based, Hepatitis B Virus
Description: as §4

[19] = oral 500 mg tablet; cited from earlier work
[20] = test system: Wild-type HBV; test: 5-day transient transfection assay in Huh7 cells, intracellular HBV RI by Southern blot; type: cell-based, Hepatitis B Virus; settings: Hepatitis B virus, Huh-7
[21] = test system: HCV replication; test: HCV replicon assay, 6 days total duration, NTZ monotherapy pre-treatment and combination therapy; type: cell-based; settings: Hepatitis C virus, 144 h, first named drug for combinations
Description: as §2, with “Antiviral activity of test compounds was assessed in a 3-day assay using the stably-expressing” left out
as §3

[22] = Cytotoxicity by neutral red dye uptake in Huh7 cells containing H/FL-Neo; type: cell-based; settings: human; Genotype 1a replicon
[23] = test system: 2.2.15 cells; test: Cytotoxicity by neutral red dye uptake in 2.2.15 cells; settings: rapidly dividing cultures
Description: (§6) HBV antiviral assays were conducted as previous described (Korba and Gerin, 1992).
as §3

[24] = as above; settings: human
Description: as §6, §3

[25] = test system: HBcAg; test: Semi-quantitative EIA of HBV proteins in 2.2.15 intracellular lysates; type: cell-based, Hepatitis B Virus
Description: as §4

[26] = Hepatitis C virus, Huh-7, Genotype 1a replicon

CS(=O)(=O)c1cnc(NC(=O)c2ccccc2O)s1 [Compound 75]
EC50 [1]: 2800 nM | EC90 [1]: 8500 nM | CC50 [2]: 53000 nM | EC50 [3]: 2100 nM | EC90 [3]: 8100 nM | CC50 [4]: 54000 nM | CC50 [5]: 56000 nM | EC90 [6]: 7900 nM

CC(=O)Oc1ccccc1C(=O)Nc1ncc([N+](=O)[O-])s1 [NTZ, nitazoxanide]
EC50 ([7]; read-out: HBsAg EC50, 2.2.15 cells): 220 ± 30 nM | EC90 ([7]; read-out: HBsAg EC90, 2.2.15 cells): 1000 ± 100 nM | EC50 ([8]; read-out: HBeAg EC50, 2.2.15 cells): 260 ± 20 nM | EC90 ([8]; read-out: HBeAg EC90, 2.2.15 cells): 1300 ± 100 nM | antiviral activity against full length genotype 1a replicon compared with AVA5 cells (genotype 1b) [9]: equivalent | EC50 [9, 26]: 330 ± 50 nM | EC90 [9, 26]: 1100 ± 100 nM | CC50 at 3 days [10]: 38000 ± 1800 nM | EC50 [11]: 210 ± 30 nM | EC90 [11]: 930 ± 110 nM | EC50 [12]: 150 ± 20 nM | EC90 [12]: 700 ± 80 nM | EC50 [13]: 180 ± 20 nM | EC90 [13]: 720 ± 90 nM | EC50 [14]: 310 ± 50 nM | EC90 [14]: 1000 ± 200 nM | EC50 [15]: 280 ± 30 nM | EC90 [15]: 850 ± 100 nM | EC50 [16]: 230 ± 30 nM | EC90 [16]: 800 ± 90 nM | EC50 ([17]; read-out: Intracellular HBV RI EC50): 590 ± 70 nM | EC50 ([17]; 2.2.15 cells, Table 3 experiment, read-out: HBV R.I. EC50): 730 ± 60 nM | EC90 ([17]; 2.2.15 cells, Table 3 experiment, read-out: HBV R.I. EC90): 2200 ± 300 nM | EC50 ([17]; 2.2.15 cells, Table 3 experiment, read-out: Virion production EC50): 190 ± 20 nM | EC90 ([17]; 2.2.15 cells, Table 3 experiment, read-out: Virion production EC90): 580 ± 40 nM | EC50 ([17]; 2.2.15 cells, nine daily doses, read-out: Extracellular virion DNA EC50): 120 ± 20 nM | effect on intracellular HBV RNA (Northern blot hybridization) [18]: did not induce a reduction | detection in plasma [19]: not detected | EC50 [20]: 210 ± 30 nM | EC90 ([20]; Wild-type, Huh7 transient transfection): 770 ± 90 nM | EC50 [21]: 200 ± 20 nM | EC90 [21]: 920 ± 100 nM | CC50 at 3 days [22]: 49000 ± 1500 nM | cytotoxicity in rapidly dividing cultures of 2.2.15 cells [23]: 20 ± 1.3 µM | CC50 at 9 days [24]: > 100000 nM | EC50 ([25]; read-out: HBcAg EC50, 2.2.15 cells): 1100 ± 100 nM | EC90 ([25]; read-out: HBcAg EC90, 2.2.15 cells): 3000 ± 200 nM
